# Source: patent US5330992A, “1-cyclopropyl-4-pyridyl-quinolinones” (priority 1992, dated 1994)
# Tests used:
# human topoisomerase II = target: T1, human topoisomerase II (Homo sapiens, UniProt P11388); test: Mammalian Topoisomerase II Inhibition Assay (DNA-topo II complex formation); format: biochemical; settings: EC50 = concentration with activity equal to EC50 of reference mAMSA; read-out: TopoII Inh. EC50
# T1 construct: Topo II was purified from late log phase suspension cultures of HeLa WIS; endogenous in cells; host or cells: HeLa WIS suspension cultures, late log phase (enzyme purified from the cells)
# Protocol: Mammalian Topoisomerase II Inhibition Assay Procedure
# The assay quantitates the amount of topo II covalently complexed by DNA at equilibrium during a topo II reaction. This assay determines the potential of a compound to stabilize this complex, which potential is closely related to the cytotoxicity of the compound.
# Assays (in duplicate) were assembled at 4° C.
# 4 ng 3' end labeled (^32 P) pBR322 DNA (10^7 DMP/μg)
# The assay mix including the test compound was incubated for 20 minutes at 37° C. The reaction was terminated at 37° C. by the addition of 3 μl 10% SDS followed by the addition of 266 μl 10 mM Tris-Cl pH 7.5, 20 μg/ml BSA, 20 μg/ml calf thymus DNA, 1% SDS.
# A SDS/protein precipitate was formed by the addition of 28 μl 2.5M KCl followed by chilling on ice for a minimum of 10 minutes. The precipitate was collected and washed with a Brandell cell harvester on a GFB glass fiber filter membrane as follows. The contents of the assay tube were drawn up into the harvester. The tube was then rinsed 7X with 10 mM Tris-Cl pH 7.5, 1 mM EDTA and 100 mM KCl. […] After drying, CPM was determined by liquid scintillation counting with 5 ml Biofluor (NEN Research Products) or Readisafe (Beckman Instruments Inc.) cocktail.
# This solution then was diluted 1/5 into water and serially thereafter in either 0.02N sodium hydroxide or 0.04N hydrogen chloride, respectively. The stock solution and serial dilution of the test compound was stored at -20° C. prior to testing.
# Screening of test compound--As an initial screen, the test compound was tested at a final concentration of 2, 20 and 200 μg/ml. The compound was then retested at a range of concentrations (usually 2-3X steps) bridging their approximate EC50 's, as estimated by the prescreen.
# Controls--A solvent control which indicates the base level of topo II-DNA complex formed in the absence of the test compound was included in each test. A control, in which topo II was omitted, was included for each test compound at the highest drug concentration tested.
# Reference Agent--A dose response curve with mAMSA at 0.01, 0.08, 0.16, 0.32, 1.0 and 10 μg/ml was included in each test.
# The maximal DNA-topo II complex formed is taken as that equal to that formed at the nearly saturating dose of mAMSA (10 μg/ml).
# [1] = In vivo antitumor assay, Mam16C/ADR; set-up: species or system mouse; settings: mouse, in vivo, drug route iv, qd 1 bid 2,3
# Description: (§1) Mice: Inbred: C3H/He and NCR-nu; and Hybrids: B6D2Fl (C57BL/6 females X DBA/2 males, CD2Fl (Balb/c females X DBS/2 males) and B6x C3fl (C57BL/6 x C3H) were bred at Wayne State University from strained obtained from the Frederick Cancer Research Facility, Frederick, Md. or purchased from commercial suppliers.
# (§2) Tumors: Murine Tumor: P388 and an adriamycin-resistant (ADR) subline P388/ADR leukemia and the following transplantable solid tumors of mice were used for in Vivo testing: B16 melanoma (B16), pancreatic ductal adenocarcinoma No. 03 (Panc 03), colon adenocarcinoma No. 38 (colo 38), mammary ductal adenocarcinoma No. 16/C (Mam16) and an adriamycin-resistantsubline Mam16C/ADR. […]
# (§3) Quantitative end points used assess antitumor activity included % Increased Life Span (% ILS), Tumor Cell Kill (Log10 kill), and Tumor Growth Inhibition (T/C). […]
# (§4) Tumors were measured with a caliper once or twice weekly (as needed) until either tumors exceeded 1600 mg or cure was assured. […] When the control group tumors reached approximately 750-1500 mg in size (median of group), the median tumor weight of each group was determined (including zeros). […] The % T/C was calculated from the following formula for solid murine tumor models: [formula] where T and C are median tumor weights of the treatment and control groups, respectively. […]
# [2] = tested on: adriamycin-resistant subline Mam16C/ADR; test: In vivo antitumor assay, Mam16C/ADR; set-up: species or system mouse; settings: drug route iv, qd 1 bid 2,3
# Description: as §1, §2, §3, §4
# T1 sequence (P11388 whole entry): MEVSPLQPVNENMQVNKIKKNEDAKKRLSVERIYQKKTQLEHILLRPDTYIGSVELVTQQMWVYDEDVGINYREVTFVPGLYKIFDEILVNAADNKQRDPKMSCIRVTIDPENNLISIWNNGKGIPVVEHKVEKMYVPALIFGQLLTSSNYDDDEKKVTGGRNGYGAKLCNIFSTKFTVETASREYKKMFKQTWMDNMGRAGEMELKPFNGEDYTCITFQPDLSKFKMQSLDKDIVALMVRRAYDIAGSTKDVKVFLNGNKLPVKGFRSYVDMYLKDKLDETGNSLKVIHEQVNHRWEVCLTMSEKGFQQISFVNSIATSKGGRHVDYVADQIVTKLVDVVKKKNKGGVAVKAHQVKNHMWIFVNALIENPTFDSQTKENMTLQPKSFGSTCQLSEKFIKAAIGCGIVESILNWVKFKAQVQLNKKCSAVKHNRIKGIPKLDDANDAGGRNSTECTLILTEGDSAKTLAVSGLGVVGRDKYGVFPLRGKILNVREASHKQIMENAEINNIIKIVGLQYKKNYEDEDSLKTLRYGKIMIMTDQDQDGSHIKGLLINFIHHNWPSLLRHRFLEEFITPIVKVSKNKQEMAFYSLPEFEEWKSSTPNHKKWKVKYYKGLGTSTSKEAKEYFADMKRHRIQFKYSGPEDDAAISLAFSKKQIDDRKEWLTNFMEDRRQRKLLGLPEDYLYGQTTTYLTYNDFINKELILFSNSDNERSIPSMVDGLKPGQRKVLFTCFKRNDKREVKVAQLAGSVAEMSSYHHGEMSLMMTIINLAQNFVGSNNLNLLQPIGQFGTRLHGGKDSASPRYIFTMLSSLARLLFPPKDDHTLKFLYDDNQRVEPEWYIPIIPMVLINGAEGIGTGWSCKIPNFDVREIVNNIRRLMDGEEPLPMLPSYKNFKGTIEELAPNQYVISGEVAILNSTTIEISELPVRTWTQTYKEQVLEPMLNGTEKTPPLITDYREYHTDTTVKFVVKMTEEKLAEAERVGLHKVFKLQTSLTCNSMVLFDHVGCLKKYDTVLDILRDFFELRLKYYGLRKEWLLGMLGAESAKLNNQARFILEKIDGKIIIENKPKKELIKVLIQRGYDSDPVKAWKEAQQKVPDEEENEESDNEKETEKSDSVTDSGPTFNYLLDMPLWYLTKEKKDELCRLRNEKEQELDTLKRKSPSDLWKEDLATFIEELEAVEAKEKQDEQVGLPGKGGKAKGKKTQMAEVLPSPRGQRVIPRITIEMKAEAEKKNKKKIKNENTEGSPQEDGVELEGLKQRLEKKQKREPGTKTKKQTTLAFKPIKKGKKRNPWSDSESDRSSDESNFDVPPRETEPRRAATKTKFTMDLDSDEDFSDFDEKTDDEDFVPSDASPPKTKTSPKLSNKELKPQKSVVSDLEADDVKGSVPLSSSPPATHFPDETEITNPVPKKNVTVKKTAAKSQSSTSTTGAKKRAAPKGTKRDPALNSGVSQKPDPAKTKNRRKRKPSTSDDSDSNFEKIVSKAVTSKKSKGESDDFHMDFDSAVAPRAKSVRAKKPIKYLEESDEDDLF
smiles,measurement,setting,value
"Cc1cc(-c2c(F)cc3c(=O)c(Cc4c(O)cccc4O)cn(C4CC4)c3c2F)cc(C)n1 [Example 26, 1-Cyclopropyl-6,8-difluoro-7-[2,6-dimethyl-4-pyridinyl]-3-[2,6-dihydroxyphenylmethyl]-1,4-dihydroquinoline-4-one]",EC50,human topoisomerase II,96 nM
same,MTD,[1],30 mg/kg
same,T/C %,[2],71%
Cc1cc(-c2c(F)cc3c(=O)c(Cc4ccccc4O)cn(C4CC4)c3c2F)cc(C)n1 [Example 30],EC50,human topoisomerase II,330 nM
